IC50 data for 25 compounds are collected here from ChEMBL document CHEMBL1147628, “Identification of novel potent bicyclic peptide deformylase inhibitors” (Bioorg Med Chem Lett, 2004).

Each structure is given as a SMILES string.

This experiment addresses T1, Peptide deformylase (Staphylococcus aureus subsp. aureus Mu50, UniProt P68825).
T1 sequence (P68825 whole entry): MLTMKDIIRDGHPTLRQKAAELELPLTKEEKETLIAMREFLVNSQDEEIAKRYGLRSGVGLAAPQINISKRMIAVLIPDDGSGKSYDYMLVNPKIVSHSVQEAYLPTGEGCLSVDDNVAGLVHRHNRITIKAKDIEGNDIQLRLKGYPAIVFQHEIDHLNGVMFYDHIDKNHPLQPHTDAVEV
The experiment is described as follows: Inhibitory activity towards Ni-peptide deformylase of Staphylococcus aureus.

Usually IC50 stands for the concentration that inhibits the measured activity by half. Lower therefore signals greater potency in that assay. `O=C(CC1Sc2ccccc2N(CC(=O)N2CCCC2)C1=O)NO` (stereo not given) showed an IC50 of 397 nM.
Then `O=C(CC1Sc2ccccc2N(Cc2ccccc2)C1=O)NO` (stereo not given), with 12 nM; and `CCCCCN1C(=O)C(CC(=O)NO)Sc2ccccc21` (stereo not given), with below 5 nM.
`O=C(CC1Cc2ccccc2N(CC2CC2)C1=O)NO` (stereo not given) registered a 50% inhibitory concentration (IC50) of 175 nM. In other words, the sub-micromolar range.
For `N#CCN1C(=O)C(CC(=O)NO)Sc2ccccc21` (stereo not given) the value was 515 nM.
For `CN1C(=O)C(CC(=O)NO)Sc2ccccc21` (stereo not given) the value was 37 nM; for `O=C(CC1Sc2ccccc2N(CC2CCC2)C1=O)NO` (stereo not given), 41 nM; for `O=C(CC1Sc2ccccc2N(CC2CCCCO2)C1=O)NO` (stereo not given), 18 nM.
For `CC(C)CCCN1C(=O)C(CC(=O)NO)Sc2ccccc21` (stereo not given) the value was below 5 nM.
In turn, `O=C(CC1Sc2ccccc2N(CC(=O)Nc2cc(F)ccc2F)C1=O)NO` (stereo not given) showed an IC50 of 58 nM.
Regarding `NNC(=O)CC1Sc2ccccc2NC1=O` (stereo not given), half-maximal inhibition (IC50) was put at 330 nM.
For `O=C1Nc2ccccc2SC1CNO` (stereo not given), the IC50 is above 2000 nM.
For `O=C(CC1Sc2ccccc2N(CCC2CCCCC2)C1=O)NO` (stereo not given) the value was 57 nM; for `CC(C)(C)C(=O)CN1C(=O)C(CC(=O)NO)Sc2ccccc21` (stereo not given), 50 nM.
Then `CC(C)CCN1C(=O)C(CC(=O)NO)Sc2ccccc21` (stereo not given), with below 5 nM.
Then `COCCN1C(=O)C(CC(=O)NO)Sc2ccccc21` (stereo not given), with below 5 nM; and `O=C(CC1Sc2ccccc2N(CCc2ccccc2)C1=O)NO` (stereo not given), with below 5 nM; and `O=C(O)CC1Sc2ccccc2NC1=O` (stereo not given), with above 2000 nM.
Compound `O=C(CC1Sc2ccccc2NC1=O)NO` (stereo not given) had an IC50 below 5 nM.
Then `O=C(CC1Sc2ccccc2N(CCC2OCCO2)C1=O)NO` (stereo not given), with below 5 nM.
Then `CON(C)C(=O)CC1Sc2ccccc2NC1=O` (stereo not given), with above 2000 nM; and `CONC(=O)CC1Sc2ccccc2NC1=O` (stereo not given), with 74 nM.
Then `O=C(CC1C(=O)Nc2ccccc2S1(=O)=O)NO` (stereo not given), with above 2000 nM; and `O=C(CC1Sc2ccccc2N(CC(=O)Nc2ccccn2)C1=O)NO` (stereo not given), with 343 nM; and `CCCCC[C@H](CC(=O)NO)C(=O)N[C@H](C(=O)N1CCC[C@H]1CO)C(C)C` [ACTINONIN], with below 5 nM.
